Experimental data as given in PubChem BioAssay AID1963866 (Molecular Pharmacology Branch, DTP, NCI, 2024).
pIC50: −log10 of the molar value. Where “and” joins values, the source holds several entries; their conditions need not be identical. Identical values can stand only once.

System: PDC KRAS tumor spheroids with HUVEC/MSC, viability
Test: Anticancer human tumor 349418-098-R-PDC patient-derived lung adenocarcinoma cell line growth inhibition [KRAS2]
Settings: for viability, T/C: stronger effect = lower value
How it was run: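 KRAS-mutant tumor cells were grown as spheroids with HUVEC endothelial cells and human MSCs as stroma. Targeted agents were tested alone and with KRAS pathway inhibitors. Doses started at or near clinical Cmax, or 10 microM, descending half-log.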

[1] = curve of first compound, second compound 0.1 µM
[2] = curve of first compound, second compound 0.316 µM
[3] = curve of first compound, second compound 1 µM
[4] = curve of first compound, second compound 3.16 µM
[5] = curve of first compound, second compound 10 µM
[6] = second compound 0.1 µM, first compound 0.0316 µM
[7] = second compound 0.1 µM, first compound 0.1 µM
[8] = second compound 0.1 µM, first compound 0.316 µM
[9] = second compound 0.1 µM, first compound 1 µM
[10] = second compound 0.1 µM, first compound 3.16 µM
[11] = second compound 0.1 µM, first compound 10 µM
[12] = second compound 0.316 µM, first compound 0.0316 µM
[13] = second compound 0.316 µM, first compound 0.1 µM
[14] = second compound 0.316 µM, first compound 0.316 µM
[15] = second compound 0.316 µM, first compound 1 µM
[16] = second compound 0.316 µM, first compound 3.16 µM
[17] = second compound 0.316 µM, first compound 10 µM
[18] = second compound 1 µM, first compound 0.0316 µM
[19] = second compound 1 µM, first compound 0.1 µM
[20] = second compound 1 µM, first compound 0.316 µM
[21] = second compound 1 µM, first compound 1 µM
[22] = second compound 1 µM, first compound 3.16 µM
[23] = second compound 1 µM, first compound 10 µM
[24] = second compound 3.16 µM, first compound 0.0316 µM
[25] = second compound 3.16 µM, first compound 0.1 µM
[26] = second compound 3.16 µM, first compound 0.316 µM
[27] = second compound 3.16 µM, first compound 1 µM
[28] = second compound 3.16 µM, first compound 3.16 µM
[29] = second compound 3.16 µM, first compound 10 µM
[30] = second compound 10 µM, first compound 0.0316 µM
[31] = second compound 10 µM, first compound 0.1 µM
[32] = second compound 10 µM, first compound 0.316 µM
[33] = second compound 10 µM, first compound 1 µM
[34] = second compound 10 µM, first compound 3.16 µM
[35] = second compound 10 µM, first compound 10 µM
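Also: spheroids exposed to compounds for seven days before readout.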

| SMILES | pIC50 [1] | pIC50 [2] | pIC50 [3] | pIC50 [4] | viability, T/C [6] | viability, T/C [7] | viability, T/C [8] | viability, T/C [9] | viability, T/C [10] | viability, T/C [11] | viability, T/C [12] | viability, T/C [13] | viability, T/C [14] | viability, T/C [15] | viability, T/C [16] | viability, T/C [17] | viability, T/C [18] | viability, T/C [19] | viability, T/C [20] | viability, T/C [21] | other results |
| --- | --- | --- | --- | --- | --- | --- | --- | --- | --- | --- | --- | --- | --- | --- | --- | --- | --- | --- | --- | --- | --- |
| CCNC(=O)CC1N=C(c2ccc(Cl)cc2)c2cc(OC)ccc2-n2c(C)nnc21 (stereo not drawn) + CNCc1ccccc1-c1csc(C(C)Nc2nc(C)nc3cc(OC)c(OC)cc23)c1 | 6.88 | 6.91 | 7.11 | > 7.50 | 103% | 58.5% | 24.3% | 12.4% | 2.7% | 1.11% | 107% | 55.7% | 24.7% | 13.5% | 2.81% | 1.21% | 86.6% | 39.5% | 13.9% | 4.94% | pIC50 [5]: > 7.50; viability, T/C [22]: 0.98%; viability, T/C [23]: 0.31%; viability, T/C [24]: 0.11%; viability, T/C [25]: 0.08%; viability, T/C [26]: 0.04%; viability, T/C [27]: 0.02%; viability, T/C [28]: 0.01%; viability, T/C [29]: 0.08%; viability, T/C [30]: 0.11%; viability, T/C [31]: 0.11%; viability, T/C [32]: 0.09%; viability, T/C [33]: 0.09%; viability, T/C [34]: 0.08%; viability, T/C [35]: 0.28% |
| Cn1nccc1Nc1nccc(-c2cc3c(s2)C(C)(C)N(CCN2CCOCC2)C3=O)n1 + COc1cc2nc(C)nc(NC(C)c3cc(N)cc(C(F)(F)F)c3)c2cc1OC1CCOC1 | 7.28 | 7.43 | 7.44 | > 7.50 | 71.1% | 22.4% | 12.5% | 7.65% | 6.07% | 4.14% | 55.6% | 19% | 12.2% | 6.27% | 6.54% | 4.93% | 53.4% | 24.2% | 8.8% | 7.31% | pIC50 [5]: > 7.50; viability, T/C [22]: 5.44%; viability, T/C [23]: 4.32%; viability, T/C [24]: 41.8%; viability, T/C [25]: 19.1%; viability, T/C [26]: 7.42%; viability, T/C [27]: 5.91%; viability, T/C [28]: 4.66%; viability, T/C [29]: 4.79%; viability, T/C [30]: 15.1%; viability, T/C [31]: 7.62%; viability, T/C [32]: 4.31%; viability, T/C [33]: 3.93%; viability, T/C [34]: 2.92%; viability, T/C [35]: 2.13% |
| CCNC(=O)CC1N=C(c2ccc(Cl)cc2)c2cc(OC)ccc2-n2c(C)nnc21 (stereo not drawn) + C=CC(=O)N1CCN(c2nc(=O)n(-c3c(C)ccnc3C(C)C)c3nc(-c4c(O)cccc4F)c(F)cc23)C(C)C1 | 6.88 | 6.86 | 6.73 | 6.85 | 84.2% | 55.5% | 31.9% | 11.2% | 1.81% | 0.76% | 83% | 54% | 37% | 11.2% | 1.1% | 0.76% | 78.3% | 60.4% | 41.4% | 6.68% | pIC50 [5]: > 7.50; viability, T/C [22]: 2.48%; viability, T/C [23]: 0.75%; viability, T/C [24]: 69.9%; viability, T/C [25]: 52.9%; viability, T/C [26]: 37.9%; viability, T/C [27]: 9.47%; viability, T/C [28]: 2.07%; viability, T/C [29]: 0.56%; viability, T/C [30]: 44.4%; viability, T/C [31]: 28.8%; viability, T/C [32]: 6.81%; viability, T/C [33]: 2.7%; viability, T/C [34]: 1.1%; viability, T/C [35]: 0.62% |
| O=C(c1cc(Cc2n[nH]c(=O)c3ccccc23)ccc1F)N1CCN(C(=O)C2CC2)CC1 |  |  |  |  |  |  |  |  |  |  |  |  |  |  |  |  |  |  |  |  | viability, T/C (compound 0.0316 µM): 91.8% [middle of 5 runs]; viability, T/C (compound 0.1 µM): 94.4% [middle of 5 runs] |
| CC1OCC2(CCN(c3cnc(Sc4ccnc(N)c4Cl)c(N)n3)CC2)C1N (stereo not drawn) + C=CC(=O)N1CCN(c2nc(OCC3CCCN3C)nc3c2CCN(c2cccc4cccc(C)c24)C3)CC1CC#N | < 5.00 | < 5.00 | 5.19 | > 7.50 | 108% | 93.6% | 79.8% | 89.4% | 78% | 83.6% | 99% | 112% | 97.8% | 98.5% | 96.8% | 95.1% | 71% | 69.4% | 62.9% | 58.3% | pIC50 (curve of first compound, second compound 0.0316 µM): < 5.00; viability, T/C (second compound 0.0316 µM, first compound 0.0316 µM): 122%; viability, T/C (second compound 0.0316 µM, first compound 0.1 µM): 95.1%; viability, T/C (second compound 0.0316 µM, first compound 0.316 µM): 92.8%; viability, T/C (second compound 0.0316 µM, first compound 1 µM): 96.8%; viability, T/C (second compound 0.0316 µM, first compound 3.16 µM): 94.1%; viability, T/C (second compound 0.0316 µM, first compound 10 µM): 68.7%; viability, T/C [22]: 50.2%; viability, T/C [23]: 49.5%; viability, T/C [24]: 0.15%; viability, T/C [25]: 0.15%; viability, T/C [26]: 0.13%; viability, T/C [27]: 0.14%; viability, T/C [28]: 0.14%; viability, T/C [29]: 0.26% |
| COc1cc(Nc2ncc3c(n2)-c2ccc(Cl)cc2C(c2c(F)cccc2OC)=NC3)ccc1C(=O)O |  |  |  |  |  |  |  |  |  |  |  |  |  |  |  |  |  |  |  |  | viability, T/C (compound 0.1 µM): 27.8% [middle of 5 runs]; viability, T/C (compound 0.316 µM): 33.1% [middle of 5 runs]; viability, T/C (compound 1 µM): 35.6% [middle of 5 runs]; viability, T/C (compound 3.16 µM): 33.9% [middle of 5 runs]; viability, T/C (compound 10 µM): 24.8% [middle of 5 runs]; pIC50 (curve of compound): > 7.50 and 7.36 |
